Here are results for 8 compounds from US10947185B2, “Crystal form of dezocine and preparation method therefor” (priority 2017, dated 2021).

Converted amounts (≈) assume the structure as drawn. Where two headings read alike, the source gives them in different places.

In general, solubility refers to the dissolved amount per volume that the medium holds.

The conditions of data set [1]: relative to Dolantin; cited from earlier work.
Data set [2] in a line: Stability test: changes of related substances over 6 months. The data set is classed as physicochemical. The text has this: iii. Compared with the sample of crystal Form I of dezocine, the new crystal form of dezocine prepared according to the present application has better stability, and changes of the related substances within the new crystal form of dezocine over 6 months are as follows: […]

The nature of data set [3]: Solubility test in 0.1 mol/L hydrochloric acid solution. Particulars: for solubility: 50 mg sample. Type of data set: physicochemical.

In the case of `C[C@@]12CCCCC[C@@H](Cc3ccc(O)cc31)[C@@H]2N` (relative stereo) [Dezocine, (−)-[5R-(5α,11α,13S*)]-13-amino-5,6,7,8,9,10,11,12-octahydro-5-methyl-5,11-methanobenzocy clodecen-3-ol], the “Analgesic intensity, onset time, duration of action and maximum analgesic effect, stronger than those of Dolantin” value in data set [1] was 5-9 times.

For `C[C@@]12CCCCC[C@@H](Cc3ccc(O)cc31)[C@@H]2N` (relative stereo) [Example 1, (−)-[5R-(5α,11α,13S*)]-13-amino-5,6,7,8,9,10,11,12-octahydro-5-methyl-5,11-methanobenzocy clodecen-3-ol], the Related substances is listed as 0.06% in data set [2] (0 days), 0.07% in data set [2] (1 month), 0.10% in data set [2] (3 months) and 0.13% in data set [2] (6 months).

For `C[C@@]12CCCCC[C@@H](Cc3ccc(O)cc31)[C@@H]2N` (relative stereo) [Example 2, (−)-[5R-(5α,11α,13S*)]-13-amino-5,6,7,8,9,10,11,12-octahydro-5-methyl-5,11-methanobenzocy clodecen-3-ol], the Related substances is on record as 0.07% in data set [2] (0 days), 0.09% in data set [2] (1 month), 0.10% in data set [2] (3 months) and 0.12% in data set [2] (6 months).

In the case of `C[C@@]12CCCCC[C@@H](Cc3ccc(O)cc31)[C@@H]2N` (relative stereo) [Example 3, (−)-[5R-(5α,11α,13S*)]-13-amino-5,6,7,8,9,10,11,12-octahydro-5-methyl-5,11-methanobenzocy clodecen-3-ol], the Related substances in data set [2] (0 days) came to 0.04%; in data set [2] (1 month), 0.05%; in data set [2] (3 months), 0.8%; in data set [2] (6 months), 0.10%.

Consider `C[C@@]12CCCCC[C@@H](Cc3ccc(O)cc31)[C@@H]2N` (relative stereo) [Example 4, (−)-[5R-(5α,11α,13S*)]-13-amino-5,6,7,8,9,10,11,12-octahydro-5-methyl-5,11-methanobenzocy clodecen-3-ol], for which the Related substances came to 0.06% in data set [2] (0 days), 0.08% in data set [2] (1 month), 0.10% in data set [2] (3 months) and 0.12% in data set [2] (6 months).

In the case of `C[C@@]12CCCCC[C@@H](Cc3ccc(O)cc31)[C@@H]2N` (relative stereo) [Example 5, (−)-[5R-(5α,11α,13S*)]-13-amino-5,6,7,8,9,10,11,12-octahydro-5-methyl-5,11-methanobenzocy clodecen-3-ol], the Related substances is recorded as 0.04% in data set [2] (0 days), 0.06% in data set [2] (1 month), 0.07% in data set [2] (3 months) and 0.09% in data set [2] (6 months).

In data set [3], `C[C@@]12CCCCC[C@@H](Cc3ccc(O)cc31)[C@@H]2N` (single isomer, unassigned) [Crystal Form I of dezocine, (−)-[5R-(5α,11α,13S*)]-13-amino-5,6,7,8,9,10,11,12-octahydro-5-methyl-5,11-methanobenzocy clodecen-3-ol, reference compound] had a solubility of 25 mg/mL (≈ 102 mM). Besides, the Related substances in data set [2] (0 days) turned out to be 0.08%; in data set [2] (1 month) it was 0.15%; in data set [2] (3 months), 0.21%; in data set [2] (6 months), 0.28%.

In the case of `C[C@@]12CCCCC[C@@H](Cc3ccc(O)cc31)[C@@H]2N` (single isomer, unassigned) [Crystal Form II of dezocine, (−)-[5R-(5α,11α,13S*)]-13-amino-5,6,7,8,9,10,11,12-octahydro-5-methyl-5,11-methanobenzocy clodecen-3-ol], the “Solubility increase compared with crystal Form I of dezocine” value in data set [3] is “about 32%”. In data set [3] (simulated gastric fluid, thermodynamic from solid, read-out: Solubility), the solubility was 33 mg/mL (≈ 134 mM).
